Experimental data reported in patent publication US8513271B2, “Pyrimidine compounds as delta opioid receptor modulators” (Janssen Pharmaceutica, NV, priority 2009, dated 2013).
Like-named read-outs stand apart in the source and are kept apart here.

Assays:
[1] = molecular target: T1, delta opioid receptor (Mus musculus, UniProt P32300); experiment: [35S]GTPγS binding assay in NG108-15 cell membranes (delta opioid functional assay), 200 nM screen; assay type: biochemical; conditions: NG108-15 cell membranes; for GTPγS δ-RelEfficacy @200 nM: 200 nM test compound, relative to calculated max of SNC80 dose response curve; for GTPγS δ-RelEfficacy @200 nM / EC50: averages if tested more than once; for EC50: read-out: GTPγS δ-opioid receptor EC50; for GTPγS δ-opioid receptor Rel Efficacy: relative efficacy from dose response
T1 construct: NG108-15 cell membranes were purchased from Applied Cell Sciences (Rockville, Md.); host or cells: NG108-15 cell membranes

[2] = molecular target: T1, delta opioid receptor; experiment: NG108-15, 24-well delta opioid receptor binding assay
[3] = [3H]Naltrindole ligand, NG108-15 cell membranes, read-out: δ-binding NG108 cell membrane Ki

T1 sequence (P32300 whole entry): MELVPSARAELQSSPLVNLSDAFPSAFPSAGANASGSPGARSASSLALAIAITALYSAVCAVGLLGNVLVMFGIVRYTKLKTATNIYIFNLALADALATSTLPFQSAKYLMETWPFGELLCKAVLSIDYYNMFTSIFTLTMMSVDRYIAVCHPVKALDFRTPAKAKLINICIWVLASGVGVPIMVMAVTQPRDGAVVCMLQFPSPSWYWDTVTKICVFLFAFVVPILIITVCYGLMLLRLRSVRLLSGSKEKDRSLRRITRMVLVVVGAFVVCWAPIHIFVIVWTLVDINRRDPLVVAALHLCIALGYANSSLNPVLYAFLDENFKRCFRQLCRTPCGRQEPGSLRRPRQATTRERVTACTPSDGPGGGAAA

Row | GTPγS δ-RelEfficacy @200 nM [1] | Ki [2, 3] | EC50 [1] | GTPγS δ-opioid receptor Rel Efficacy [1] | Compound | Ki [2]
1 | 0.213 | 40 nM | – | – | CCN(CC)C(=O)c1cccc(Oc2nc(-c3cccnc3)ncc2NC[C@@H]2CCCN2)c1 [Cpd 157] | –
2 | – | 0.4 nM | 387 nM | 1.197 | N#Cc1cncc(-c2ncc(NC[C@@H]3CCCN3)c(Oc3ccc(F)cc3)n2)c1 [Cpd 146] | –
3 | – | 3760 nM | – | – | O=C(O)c1ccc(Oc2nc(-c3cncc(F)c3)ncc2NC[C@@H]2CCCN2)cc1 [Cpd 165] | –
4 | – | 9 nM | > 10000 nM | – | N#Cc1ccc(Oc2nc(-c3cccnc3)ncc2NC[C@@H]2CCCN2)cc1F [Cpd 137] | –
5 | – | 33 nM | – | – | CN1CCN(C(=O)c2cccc(Oc3nc(-c4cccnc4)ncc3NC[C@@H]3CCCN3)c2)CC1 [Cpd 169] | –
6 | 0.454 | 1 nM | 193 nM | 1.120 | COCc1ccc(Oc2nc(-c3cncc(C#N)c3)ncc2NC[C@@H]2CCCN2)cc1 [Cpd 153] | –
7 | – | 5 nM | 4020 nM | 1.180 | OCc1ccc(Oc2nc(-c3cccnc3)ncc2NC[C@@H]2CCCN2)cc1 [Cpd 145] | –
8 | 0.704 | 1 nM | 119 nM | 1.121 | CSc1ccc(Oc2nc(-c3cncnc3)ncc2NC[C@@H]2CCCN2)cc1 [Cpd 151] | –
9 | – | 6 nM | > 10000 nM | – | COc1ccc(Oc2nc(-c3cncc(C#N)c3)ncc2NC[C@@H](N)CC(C)C)cc1 [Cpd 294] | –
10 | – | 7 nM | 9000 nM | 0.789 | N#Cc1ccc(Oc2nc(-c3cccnc3)ncc2NC[C@@H]2CCCN2)cc1 [Cpd 136] | –
11 | – | 795 nM | – | – | O=C(c1ccc(Oc2nc(-c3cccnc3)ncc2NC[C@@H]2CCCN2)cc1)N1CCOCC1 [Cpd 161] | –
12 | 0.245 | 2 nM | – | – | Clc1ccc(Oc2nc(-c3cncnc3)ncc2NC[C@@H]2CCCN2)cc1 [Cpd 130] | –

Continued, molecule first:

Row | Compound | GTPγS δ-RelEfficacy @200 nM [1] | Ki [2, 3] | EC50 [1] | GTPγS δ-opioid receptor Rel Efficacy [1] | Ki [2]
13 | N#Cc1cncc(-c2ncc(NC[C@@H]3CCCN3)c(Oc3ccc(Cl)cc3)n2)c1 [Cpd 129] | 0.633 | 0.3 nM | 55.1 nM | 0.976 | –
14 | N#Cc1cccc(Oc2nc(-c3cccnc3)ncc2NC[C@@H]2CCCN2)c1 [Cpd 135, 3-{2-Pyridin-3-yl-5-[(pyrrolidin-2-(S)-ylmethyl)-amino]-pyrimidin-4-yloxy}-benzonitrile] | – | – | 1380 nM | – | 2 nM
15 | FC(F)(F)COc1ccc(Oc2nc(-c3cncnc3)ncc2NC[C@@H]2CCCN2)cc1 [Cpd 123] | 0.653 | 0.4 nM | 57 nM | 1.124 | –
16 | COc1ccc(Oc2nc(-c3cncnc3)ncc2NC[C@@H](N)CC(C)C)cc1 [Cpd 295] | – | – | – | – | 64 nM
17 | COc1ccc(Oc2nc(-c3cc(F)cc(C#N)c3)ncc2NC[C@@H]2CCCN2)cc1 [Cpd 142] | 0.931 | 0.2 nM | 29 nM | 1.006 | –
18 | O=C(c1ccc(Oc2nc(-c3cccnc3)ncc2NC[C@@H]2CCCN2)cc1)N1CCCC1 [Cpd 158] | – | 1600 nM | – | – | –
19 | COc1ccc(Oc2nc(-c3cncc(F)c3)ncc2NC[C@H]2COCCN2)cc1 [Cpd 281] | 0.221 | 1 nM | – | – | –
20 | O=C(Nc1ccc(Oc2nc(-c3cccnc3)ncc2NC[C@@H]2CCCN2)cc1)C1CC1 [Cpd 138, Cyclopropanecarboxylic acid (4-{2-pyridin-3-yl-5-[(pyrrolidin-2-(S)-ylmethyl)-amino]-pyrimidin-4-yloxy}-phenyl)-amide] | – | – | 1340 nM | – | 4 nM
21 | Fc1cncc(-c2ncc(NC[C@@H]3CCCN3)c(Oc3ccc(Cl)cc3)n2)c1 [Cpd 128] | – | 0.4 nM | 453 nM | 1.144 | –
22 | O=C(O)c1cccc(Oc2nc(-c3cccnc3)ncc2NC[C@@H]2CCCN2)c1 [Cpd 163] | – | 6390 nM | – | – | –
23 | O=C(O)c1ccc(Oc2nc(-c3cccnc3)ncc2NC[C@@H]2CCCN2)cc1 [Cpd 159] | – | 4450 nM | – | – | –
